Experimental data published in ChEMBL document CHEMBL1201862, “PubChem BioAssay data set” (2004).
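Compound exposure: 48 hours, 5 concentrations, 96-well plates. GI50 is the concentration that inhibits growth by half.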 Activity calls are given as the source filed them. Rule as the data show it: active = GI50 up to about 1.1 µM and inactive = higher. Peptide text beside a SMILES is read from it.

Tests used:
Assay in all cases: NCI anticancer screen, dose series, 48 h
DU-145 = test system: DU-145
HCT-116 = test system: HCT-116
SW-620 = test system: SW-620
OVCAR-4 = test system: OVCAR-4
OVCAR-3 = test system: OVCAR-3
TK-10 = test system: TK-10
MDA-MB-435 = test system: MDA-MB-435
SN12C = test system: SN12C
HCT-15 = test system: HCT-15
HOP-62 = test system: HOP-62
UACC-257 = test system: UACC-257
CAKI-1 = test system: CAKI-1
UO-31 = test system: UO-31
SK-OV-3 = test system: SK-OV-3
OVCAR-5 = test system: OVCAR-5
U-251 = test system: U-251
MDA-MB-231 = test system: MDA-MB-231
NCI-H23 = test system: NCI-H23
NCI-H460 = test system: NCI-H460
A549 = test system: A549

| Compound | GI50 (DU-145) | GI50 (HCT-116) | GI50 (SW-620) | GI50 (OVCAR-4) | GI50 (OVCAR-3) | GI50 (TK-10) | GI50 (MDA-MB-435) | GI50 (SN12C) | GI50 (HCT-15) [µM] | GI50 (HOP-62) | GI50 (UACC-257) | GI50 (CAKI-1) | GI50 (UO-31) | GI50 (SK-OV-3) | GI50 (OVCAR-5) | GI50 (U-251) | GI50 (MDA-MB-231) | GI50 (NCI-H23) | GI50 (NCI-H460) | GI50 (A549) |
| --- | --- | --- | --- | --- | --- | --- | --- | --- | --- | --- | --- | --- | --- | --- | --- | --- | --- | --- | --- | --- |
| S=c1nc(Nc2ccc(Cl)cc2)c2c3c(sc2[nH]1)CCCC3 | > 100 µM (inactive) | > 100 µM (inactive) | > 100 µM (inactive) | > 100 µM (inactive) | > 100 µM (inactive) | > 100 µM (inactive) | > 100 µM (inactive) | > 100 µM (inactive) | > 100 | > 100 µM (inactive) | > 100 µM (inactive) | > 100 µM (inactive) | > 100 µM (inactive) | > 100 µM (inactive) | > 100 µM (inactive) | > 100 µM (inactive) | > 100 µM (inactive) | 45.1 µM (inactive) | > 100 µM (inactive) | – |
| Cc1ccc(NC2=CC(=O)C(NO)c3ccccc32)cc1 (centres undefined) | 2.56 µM (inactive) | 2.47 µM (inactive) | 3.24 µM (inactive) | 2.99 µM (inactive) | 0.61 µM (active) | 16.8 µM (inactive) | 1.89 µM (inactive) | 3.36 µM (inactive) | 2.79 | 3.39 µM (inactive) | 1.73 µM (inactive) | 2.5 µM (inactive) | 2.82 µM (inactive) | 10.8 µM (inactive) | 8.59 µM (inactive) | 3.15 µM (inactive) | 2.21 µM (inactive) | 1.64 µM (inactive) | 3.22 µM (inactive) | 3.09 µM (inactive) |
| N#CC(C#N)[C@@H]1CCC=C(Sc2ccccc2)[C@H]1Sc1ccccc1 | 2.72 µM (inactive) | 2.11 µM (inactive) | 2.42 µM (inactive) | 4.6 µM (inactive) | 3.44 µM (inactive) | 1.86 µM (inactive) | 1.26 µM (inactive) | 2.8 µM (inactive) | 2.4 | 3.2 µM (inactive) | 2.26 µM (inactive) | 2.65 µM (inactive) | 5.31 µM (inactive) | 4.54 µM (inactive) | 5.58 µM (inactive) | 5.81 µM (inactive) | 4.05 µM (inactive) | 3.96 µM (inactive) | 3.56 µM (inactive) | 3.28 µM (inactive) |
| COc1ccc(CCNC(=O)Cc2ccccc2CO)cc1OC | > 100 µM (inactive) | > 100 µM (inactive) | > 100 µM (inactive) | > 100 µM (inactive) | > 100 µM (inactive) | > 100 µM (inactive) | > 100 µM (inactive) | > 100 µM (inactive) | > 100 | > 100 µM (inactive) | > 100 µM (inactive) | > 100 µM (inactive) | > 100 µM (inactive) | > 100 µM (inactive) | > 100 µM (inactive) | > 100 µM (inactive) | > 100 µM (inactive) | > 100 µM (inactive) | > 100 µM (inactive) | > 100 µM (inactive) |
| CCN(CC)P1(=S)Oc2ccc3ccccc3c2-c2c(ccc3ccccc23)O1 | > 100 µM (inactive) | 83 µM (inactive) | > 100 µM (inactive) | 99.3 µM (inactive) | > 100 µM (inactive) | > 100 µM (inactive) | > 100 µM (inactive) | > 100 µM (inactive) | 63.4 | > 100 µM (inactive) | > 100 µM (inactive) | > 100 µM (inactive) | > 100 µM (inactive) | > 100 µM (inactive) | > 100 µM (inactive) | > 100 µM (inactive) | > 100 µM (inactive) | > 100 µM (inactive) | > 100 µM (inactive) | > 100 µM (inactive) |
| COC(=O)C#Cc1ccc([N+](=O)[O-])cc1 | 1.76 µM (inactive) | 1.15 µM (inactive) | 1.19 µM (inactive) | 1.7 µM (inactive) | 1.59 µM (inactive) | 1.89 µM (inactive) | 2.18 µM (inactive) | 1.67 µM (inactive) | 0.502 | 2.65 µM (inactive) | 2.37 µM (inactive) | 1.38 µM (inactive) | 1.42 µM (inactive) | 8.32 µM (inactive) | 2.16 µM (inactive) | 1.88 µM (inactive) | 2.09 µM (inactive) | 1.62 µM (inactive) | 13.1 µM (inactive) | 2.74 µM (inactive) |
| CCOC(=O)C(C(=O)OCC)C(NC(=O)Nc1cc(C(F)(F)F)ccc1OC)(C(F)(F)F)C(F)(F)F | 40.3 µM (inactive) | 36.2 µM (inactive) | 24.6 µM (inactive) | 23.2 µM (inactive) | 26.1 µM (inactive) | 59 µM (inactive) | 19.1 µM (inactive) | 27.5 µM (inactive) | 45.8 | 25.4 µM (inactive) | 39.5 µM (inactive) | 29.4 µM (inactive) | 21 µM (inactive) | 47.6 µM (inactive) | 45.8 µM (inactive) | 29.2 µM (inactive) | 17.4 µM (inactive) | 35.3 µM (inactive) | 31.5 µM (inactive) | 39.4 µM (inactive) |
| CC(=O)O[C@@H]1C[C@]2(C(=O)c3ccccc3)C(=O)C(=O)S[C@]12c1ccccc1 | 51.8 µM (inactive) | 46.6 µM (inactive) | 31.6 µM (inactive) | 56.1 µM (inactive) | 69.8 µM (inactive) | 55.7 µM (inactive) | 29.2 µM (inactive) | 35.8 µM (inactive) | 32.9 | 61 µM (inactive) | 55.8 µM (inactive) | 42.9 µM (inactive) | 42.8 µM (inactive) | 50 µM (inactive) | > 100 µM (inactive) | 31.3 µM (inactive) | 58.1 µM (inactive) | 45 µM (inactive) | 45.6 µM (inactive) | 55.8 µM (inactive) |
| CCOC(=O)C(NC(=O)CC)(Nc1ccc(S(=O)(=O)Nc2ncccn2)cc1)C(F)(F)F (centres undefined) | > 100 µM (inactive) | > 100 µM (inactive) | > 100 µM (inactive) | > 100 µM (inactive) | > 100 µM (inactive) | – | > 100 µM (inactive) | > 100 µM (inactive) | > 100 | > 100 µM (inactive) | > 100 µM (inactive) | > 100 µM (inactive) | > 100 µM (inactive) | > 100 µM (inactive) | > 100 µM (inactive) | > 100 µM (inactive) | > 100 µM (inactive) | > 100 µM (inactive) | > 100 µM (inactive) | > 100 µM (inactive) |
| COc1cc(S(=O)(=O)Nc2ccc(-c3csc(/N=C\c4cccs4)n3)cc2)ccc1Cl | 29.4 µM (inactive) | 37.4 µM (inactive) | 34.3 µM (inactive) | > 100 µM (inactive) | 54.6 µM (inactive) | 49.9 µM (inactive) | 29.3 µM (inactive) | 89.5 µM (inactive) | > 100 | 67 µM (inactive) | 51.8 µM (inactive) | > 100 µM (inactive) | 45.5 µM (inactive) | > 100 µM (inactive) | > 100 µM (inactive) | – | 87.7 µM (inactive) | 53.1 µM (inactive) | 53 µM (inactive) | 78.7 µM (inactive) |
| COc1ccc(OC)c(N(CN2C(=O)CCC2C(=O)O)C(C)=O)c1 (centres undefined) | > 100 µM (inactive) | > 100 µM (inactive) | > 100 µM (inactive) | > 100 µM (inactive) | > 100 µM (inactive) | > 100 µM (inactive) | > 100 µM (inactive) | > 100 µM (inactive) | > 100 | > 100 µM (inactive) | > 100 µM (inactive) | > 100 µM (inactive) | > 100 µM (inactive) | > 100 µM (inactive) | > 100 µM (inactive) | > 100 µM (inactive) | > 100 µM (inactive) | > 100 µM (inactive) | > 10 µM (inactive) | > 100 µM (inactive) |
| CC(C)CC(NP(=O)(O)OC1OC(C)C(O)C(O)C1O)C(=O)NC(Cc1c[nH]c2ccccc12)C(=O)O (centres undefined) | > 100 µM (inactive) | > 100 µM (inactive) | > 100 µM (inactive) | > 100 µM (inactive) | > 100 µM (inactive) | – | > 100 µM (inactive) | > 100 µM (inactive) | > 100 | > 100 µM (inactive) | > 100 µM (inactive) | > 100 µM (inactive) | > 100 µM (inactive) | > 100 µM (inactive) | > 100 µM (inactive) | > 100 µM (inactive) | > 100 µM (inactive) | > 100 µM (inactive) | > 100 µM (inactive) | > 100 µM (inactive) |
| CC(C)CC(NC(=O)C(CC(C)C)NC(=O)C(Cc1c[nH]cn1)NC(=O)C(C)NC(=O)C(NC(=O)C(C)NC(=O)C(Cc1c[nH]c2ccccc12)NC(=O)C(CCC(=O)O)NC(=O)C(N)Cc1ccccc1)C(C)C)C(N)=O (centres undefined) (H-FEWAVAHLL-NH2; configuration not given here) | > 12.5 µM (inactive) | > 12.5 µM (inactive) | > 12.5 µM (inactive) | > 12.5 µM (inactive) | > 12.5 µM (inactive) | – | > 12.5 µM (inactive) | > 12.5 µM (inactive) | > 12.5 | > 12.5 µM (inactive) | > 12.5 µM (inactive) | > 12.5 µM (inactive) | > 12.5 µM (inactive) | > 12.5 µM (inactive) | > 12.5 µM (inactive) | > 12.5 µM (inactive) | > 12.5 µM (inactive) | > 12.5 µM (inactive) | > 12.5 µM (inactive) | > 12.5 µM (inactive) |
| CCOC(=O)C1=C(C)N(Cc2ccccc2)C2(O)C=CC(=O)C3C(=O)N(c4ccccc4)C(=O)C132 (centres undefined) | 2.15 µM (inactive) | 1.15 µM (inactive) | – | 1.98 µM (inactive) | 2.28 µM (inactive) | 3.44 µM (inactive) | 1.89 µM (inactive) | 2.56 µM (inactive) | 1.79 | 2.35 µM (inactive) | 2.04 µM (inactive) | 1.53 µM (inactive) | 1.89 µM (inactive) | 6.75 µM (inactive) | 3.43 µM (inactive) | 2.69 µM (inactive) | 3.96 µM (inactive) | 2.56 µM (inactive) | 1.81 µM (inactive) | 2.86 µM (inactive) |
